In ChEMBL document CHEMBL1201862, “PubChem BioAssay data set” (2004):
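Grown in 96-well plates, cells were treated for 48 hours with each compound at five concentrations. Insufficient inhibition: endpoint recorded as highest concentration tested. GI50: concentration for 50% inhibition of growth.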 Calls of active or inactive are those of the source. No stated cut-off is given here; in the data, active = GI50 up to about 1.1 µM and inactive = higher.

Tests used:
Assay in all cases: NCI anticancer screen, dose series, 48 h
OVCAR-4 = system: OVCAR-4
HL-60 = system: HL-60
NCI-H460 = system: NCI-H460
SF-268 = system: SF-268
U-251 = system: U-251
UO-31 = system: UO-31
HT-29 = system: HT-29
SK-MEL-28 = system: SK-MEL-28
NCI-H226 = system: NCI-H226
SK-MEL-2 = system: SK-MEL-2
SF-295 = system: SF-295
CCRF-CEM = system: CCRF-CEM
K562 = system: K562
RXF 393 = system: RXF 393
OVCAR-3 = system: OVCAR-3
IGROV-1 = system: IGROV-1
LOX IMVI = system: LOX IMVI
M14 = system: M14

| SMILES | GI50 (OVCAR-4) | GI50 (HL-60) | GI50 (NCI-H460) | GI50 (SF-268) | GI50 (U-251) | GI50 (UO-31) | GI50 (HT-29) | GI50 (SK-MEL-28) | GI50 (NCI-H226) | GI50 (SK-MEL-2) | GI50 (SF-295) | GI50 (CCRF-CEM) | GI50 (K562) | GI50 (RXF 393) | GI50 (OVCAR-3) | GI50 (IGROV-1) | GI50 (LOX IMVI) | GI50 (M14) |
| --- | --- | --- | --- | --- | --- | --- | --- | --- | --- | --- | --- | --- | --- | --- | --- | --- | --- | --- |
| C#Cc1cccc(NC(=O)/C=C\C(=O)O)c1 | > 100 µM (inactive) | > 100 µM (inactive) | > 100 µM (inactive) | > 100 µM (inactive) | > 100 µM (inactive) | > 100 µM (inactive) | > 100 µM (inactive) | > 100 µM (inactive) | > 100 µM (inactive) | > 100 µM (inactive) | > 100 µM (inactive) | > 100 µM (inactive) | > 100 µM (inactive) |  |  |  |  |  |
| COc1ccc(/C=c2/sc3n(c2=O)NC2(CCC(C)CC2)NN=3)cc1 (stereo not given) | 52.5 µM (inactive) |  | > 100 µM (inactive) | > 100 µM (inactive) | > 100 µM (inactive) | > 100 µM (inactive) | > 100 µM (inactive) | > 100 µM (inactive) | > 100 µM (inactive) | > 100 µM (inactive) | > 100 µM (inactive) | > 100 µM (inactive) | > 100 µM (inactive) | > 100 µM (inactive) | 60.8 µM (inactive) | > 100 µM (inactive) | > 100 µM (inactive) | > 100 µM (inactive) |
| COc1cccc(/C=C(\NC(C)=O)c2nc3cc(Cl)ccc3[nH]2)c1 | > 100 µM (inactive) |  |  | > 100 µM (inactive) | > 100 µM (inactive) | > 100 µM (inactive) | > 100 µM (inactive) | > 100 µM (inactive) |  | > 100 µM (inactive) | > 100 µM (inactive) | > 100 µM (inactive) | > 100 µM (inactive) | > 100 µM (inactive) | > 100 µM (inactive) | > 100 µM (inactive) |  | > 100 µM (inactive) |
| O=C(O)CNc1cc(-c2ccccc2)nc(NCC(=O)O)n1 | > 100 µM (inactive) | > 100 µM (inactive) | > 100 µM (inactive) |  | > 100 µM (inactive) | > 100 µM (inactive) | > 100 µM (inactive) | 49.5 µM (inactive) | > 100 µM (inactive) | > 100 µM (inactive) | > 100 µM (inactive) | > 100 µM (inactive) | > 100 µM (inactive) |  | > 100 µM (inactive) | > 100 µM (inactive) | > 100 µM (inactive) | > 100 µM (inactive) |
| C=CC1=C(C)c2cc3[nH]c(cc4nc(cc5[nH]c(cc1n2)c(C)c5CCC(=O)N(CC)CC)C(CCC(=O)N(CC)CC)=C4C)c(C)c3C=C | > 100 µM (inactive) | > 100 µM (inactive) | > 100 µM (inactive) |  | > 100 µM (inactive) | > 100 µM (inactive) | > 100 µM (inactive) | > 100 µM (inactive) |  | > 100 µM (inactive) | 61.2 µM (inactive) | > 100 µM (inactive) | > 100 µM (inactive) | 75.9 µM (inactive) | > 100 µM (inactive) | > 100 µM (inactive) | > 100 µM (inactive) | > 100 µM (inactive) |
| O=C1NC(=O)C(C(=O)C(=O)Nc2ccc(Cl)cc2Cl)C(=O)N1 | > 100 µM (inactive) | > 100 µM (inactive) | > 100 µM (inactive) |  | > 100 µM (inactive) | > 100 µM (inactive) |  |  |  | > 100 µM (inactive) | > 100 µM (inactive) | > 100 µM (inactive) | > 100 µM (inactive) |  | > 100 µM (inactive) | > 100 µM (inactive) |  | > 100 µM (inactive) |
| O=C(COC(=O)c1cccc2c(=O)c3ccccc3[nH]c12)Nc1ccc(S(=O)(=O)Nc2ncccn2)cc1 | 59.2 µM (inactive) | 30.9 µM (inactive) | > 100 µM (inactive) | 37 µM (inactive) | 24.3 µM (inactive) | > 100 µM (inactive) | 31.8 µM (inactive) | 32.9 µM (inactive) | > 100 µM (inactive) |  | 58.9 µM (inactive) | 27.5 µM (inactive) | 38.5 µM (inactive) | 43.3 µM (inactive) | 22.6 µM (inactive) | 39.8 µM (inactive) | 35.7 µM (inactive) | 93.1 µM (inactive) |
| COC(=O)C1C2CC3C(OC(=O)C31)C2I (stereo not given) | > 100 µM (inactive) | > 100 µM (inactive) | > 100 µM (inactive) | > 100 µM (inactive) | > 100 µM (inactive) | > 100 µM (inactive) | > 100 µM (inactive) | > 10 µM (inactive) | > 100 µM (inactive) | > 100 µM (inactive) | > 100 µM (inactive) |  | > 100 µM (inactive) | > 10 µM (inactive) | > 100 µM (inactive) | > 100 µM (inactive) | > 100 µM (inactive) | > 100 µM (inactive) |
| O=c1c2cccnc2ncn1CCCN1CCCC1 | > 100 µM (inactive) |  | > 100 µM (inactive) | > 100 µM (inactive) | > 100 µM (inactive) | > 100 µM (inactive) | > 100 µM (inactive) | > 10 µM (inactive) | 91 µM (inactive) | > 100 µM (inactive) | > 100 µM (inactive) | > 100 µM (inactive) | > 100 µM (inactive) | > 100 µM (inactive) | > 100 µM (inactive) | > 100 µM (inactive) | > 100 µM (inactive) | > 100 µM (inactive) |
| O=C1CCC(c2ccccc2)C(O)(C(=O)O)C1 (stereo not given) | > 100 µM (inactive) | > 100 µM (inactive) | > 100 µM (inactive) | > 100 µM (inactive) | > 100 µM (inactive) | > 100 µM (inactive) | > 100 µM (inactive) | > 100 µM (inactive) | > 100 µM (inactive) | > 100 µM (inactive) | > 100 µM (inactive) | > 100 µM (inactive) | > 100 µM (inactive) |  | > 100 µM (inactive) | > 100 µM (inactive) | > 100 µM (inactive) | > 100 µM (inactive) |
| Cc1ccc(-c2cc(-c3ccco3)c(C#N)c(=O)n2C2OC(OC(=O)c3ccccc3)C(OC(=O)c3ccccc3)C2OC(=O)c2ccccc2)cc1 (stereo not given) |  |  | > 100 µM (inactive) | 81.3 µM (inactive) | 0.925 µM (active) | > 100 µM (inactive) | > 100 µM (inactive) | > 100 µM (inactive) |  | > 100 µM (inactive) | 59 µM (inactive) | > 100 µM (inactive) | > 100 µM (inactive) | 24.9 µM (inactive) | 39.2 µM (inactive) | 42.8 µM (inactive) | > 100 µM (inactive) | 64.4 µM (inactive) |
| CC1(Br)C(=O)NC(=O)N(C2CC(N=[N+]=[N-])C(CO)O2)C1N=[N+]=[N-] (stereo not given) | > 100 µM (inactive) | > 100 µM (inactive) | > 100 µM (inactive) | > 100 µM (inactive) | > 100 µM (inactive) | > 100 µM (inactive) | > 100 µM (inactive) | > 100 µM (inactive) |  | > 100 µM (inactive) | > 100 µM (inactive) | 53.1 µM (inactive) | > 100 µM (inactive) | 91.8 µM (inactive) | > 100 µM (inactive) | > 100 µM (inactive) | > 100 µM (inactive) | > 100 µM (inactive) |
| CCC1(N=[N+]=[N-])C(=O)c2ccccc2N(C)C1=O (stereo not given) | > 100 µM (inactive) | > 100 µM (inactive) | > 100 µM (inactive) | > 100 µM (inactive) | > 100 µM (inactive) | > 100 µM (inactive) | > 100 µM (inactive) | > 100 µM (inactive) |  | > 100 µM (inactive) | > 100 µM (inactive) | > 100 µM (inactive) | > 100 µM (inactive) |  | > 100 µM (inactive) | > 100 µM (inactive) | > 100 µM (inactive) | > 100 µM (inactive) |
| CSc1snc2sc3c(Cl)nnnc3c12 | 14.8 µM (inactive) |  | 15.8 µM (inactive) | 16.9 µM (inactive) | 15.1 µM (inactive) | 13 µM (inactive) | 4.84 µM (inactive) | 10.6 µM (inactive) |  | 12.6 µM (inactive) | 18 µM (inactive) | 2.12 µM (inactive) | 2.36 µM (inactive) | 12.3 µM (inactive) | 2.43 µM (inactive) | 18.3 µM (inactive) | 3.12 µM (inactive) | 12.6 µM (inactive) |
| CNCC(=O)Nc1ccc2c(c1)C(=O)c1ccc(NC(=O)CNC)cc1C2=O | 1.91 µM (inactive) |  | 3.77 µM (inactive) |  | 2.7 µM (inactive) | 11.8 µM (inactive) | 4.42 µM (inactive) | 2.54 µM (inactive) | 7.57 µM (inactive) | 3.66 µM (inactive) | 5.3 µM (inactive) | 2.74 µM (inactive) | 1.96 µM (inactive) | 7.31 µM (inactive) | 3.05 µM (inactive) | 16.6 µM (inactive) | 1.68 µM (inactive) | 2.55 µM (inactive) |
| C=CCC(C(=O)OC)C1(C(=O)OC)c2[nH]c3ccccc3c2CCN1Cc1ccccc1 (stereo not given) | 20.2 µM (inactive) | 18.2 µM (inactive) |  | > 100 µM (inactive) | 64.4 µM (inactive) | 53.3 µM (inactive) | > 100 µM (inactive) | > 100 µM (inactive) |  | > 100 µM (inactive) | 35.1 µM (inactive) | 29.8 µM (inactive) | > 10 µM (inactive) | 33 µM (inactive) | > 100 µM (inactive) | > 100 µM (inactive) |  | 82.4 µM (inactive) |
| O=C1OCC(C(=O)c2cccc(O)c2)C1=O (stereo not given) | > 100 µM (inactive) |  | > 100 µM (inactive) | > 100 µM (inactive) | > 100 µM (inactive) | > 100 µM (inactive) | > 100 µM (inactive) | > 100 µM (inactive) | > 100 µM (inactive) |  | > 100 µM (inactive) |  |  | > 100 µM (inactive) | > 100 µM (inactive) | > 100 µM (inactive) | > 100 µM (inactive) | > 100 µM (inactive) |
